Measured values: patent US6436990B1, “6-methoxy-2-naphthylacetic acid prodrugs” (Nobex Corporation, priority 1999, dated 2002)

Assays:
[1] = tested on: Rat Paw Edema; assay: Rat Paw Edema; type: in vivo; conditions: for % Inhibition: one dose per compound (Dose column, mg/kg): Nabumetone 79.0, 6-MNA 75.0, Indomethacin 10.0, Example 1 94.3, Example 2 121.0, Example 3 94.9, Example 4 121.0
[2] = oral administration; cited from earlier work

SMILES | ED50 [1] | % Inhibition [1] | melting point | share of orally administered nabumetone transferred in vivo into 6MNA [2]
COc1ccc2cc(CC(=O)OCC(C)=O)ccc2c1 [Example 1, (6-methoxy-naphthalen-2-yl)-acetic acid 2-oxo-propyl ester] | 33.9 mg/kg | 65% | 122 to 124 °C | –
COc1ccc2cc(CC(=O)OCCOCCO[N+](=O)[O-])ccc2c1 [Example 2, (6-Methoxy-naphthalen-2-yl)-acetic acid 2-(2-nitrooxy-ethoxy)-ethyl ester] | – | 57% | – | –
COc1ccc2cc(CC(=O)OCC(=O)O)ccc2c1 [Example 3, (6-methoxy-naphthalen-2-yl)-acetic acid carboxymethyl ester] | – | 58% | 190 to 192 °C (dec.) | –
CCOC(=O)COC(=O)Cc1ccc2cc(OC)ccc2c1 [Example 4, (6-methoxy-naphthalen-2-yl)-acetic acid ethoxycarbonylmethyl ester] | – | 38% | 38 to 40 °C | –
COc1ccc2cc(CC(=O)O)ccc2c1 [Example 6-MNA, 6-methoxy-2-naphthylacetic acid] | – | 45% | – | –
COCCNC(=O)Cc1ccc2cc(OC)ccc2c1 [Example 8, N-(2-methoxy-ethyl)-2-(6-methoxy-naphthalen-2-yl)-acetamide] | – | – | 129 °C | –
COc1ccc2cc(CC(N)=O)ccc2c1 [Example 10, 2-(6-methoxy-naphthalen-2-yl)-acetamide] | – | – | 234 to 236 °C | –
COc1ccc2c(c1)c(CC(=O)O)c(C)n2C(=O)c1ccc(Cl)cc1 [Indomethacin, reference compound] | – | 51% | – | –
COc1ccc2cc(CCC(C)=O)ccc2c1 [Nabumetone, nabumetone, reference compound] | 35.9 mg/kg | 60% | – | about 35%
